Test results: the supplement of paper PMC10307832

Experiments:
Assay in all cases: relative viability (nuclei count vs DMSO), 5 days (fraction); higher = more cells survive
[1] = compound: COC1=CC=C(C=C1)CN2C=CC3=C2C=C(C=C3)C(=O)NO + Nc1ncn([C@H]2C[C@H](O)[C@@H](CO)O2)c(=O)n1 [Decitabine] (partner 2 µM)
Outline: (§1)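 Lung cancer cell lines were pin-tool dosed in 1536-well plates on the day after seeding, with either a lone drug or a fixed anchor-drug dose plus five library-drug doses (not always all listed) in √10 steps. Nuclei were counted on 4× images after 5 days. Relative viability is the ratio of treated-well to vehicle-well nuclei counts, with each value a median of duplicate plates.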

[2] = compound: COC1=CC=C(C=C1)CN2C=CC3=C2C=C(C=C3)C(=O)NO + N=C(N)NC(=N)NCCc1ccccc1 [Phenformin] (partner 250 µM)
Outline: as §1

[3] = compound: C[C@]1(c2nc3c(C(N)=O)cccc3[nH]2)CCCN1 [Veliparib] + C[C@]1(O)C[C@@H](c2nc(-c3ccc4ccc(-c5ccccc5)nc4c3)c3c(N)nccn32)C1 [Linsitinib] (partner 1 µM)
Outline: as §1

[4] = compound: COC1=CC=C(C=C1)CN2C=CC3=C2C=C(C=C3)C(=O)NO + CCNC(=O)c1noc(-c2cc(C(C)C)c(O)cc2O)c1-c1ccc(CN2CCOCC2)cc1 [Luminespib] (partner 0.01 µM)
Outline: as §1

| Cell Line | relative viability ([1]; first compound 0.253 µM) | relative viability ([1]; first compound 0.8 µM) | relative viability ([1]; first compound 2.53 µM) | relative viability ([1]; first compound 8 µM) | relative viability ([2]; first compound 0.253 µM) | relative viability ([2]; first compound 0.8 µM) | relative viability ([2]; first compound 2.53 µM) | relative viability ([2]; first compound 8 µM) | relative viability ([3]; first compound 0.02 µM) | relative viability ([3]; first compound 0.06325 µM) | relative viability ([3]; first compound 0.2 µM) | relative viability ([3]; first compound 0.6325 µM) | relative viability ([3]; first compound 2 µM) | relative viability ([4]; first compound 0.253 µM) | relative viability ([4]; first compound 0.8 µM) | relative viability ([4]; first compound 2.53 µM) | relative viability ([4]; first compound 8 µM) | relative viability ([1]; first compound 0.08 µM) | relative viability ([2]; first compound 0.08 µM) | relative viability ([4]; first compound 0.08 µM) |
| --- | --- | --- | --- | --- | --- | --- | --- | --- | --- | --- | --- | --- | --- | --- | --- | --- | --- | --- | --- | --- |
| HARA | 0.493 | 0.6 | 0.587 | 0.534 | 0.455 | 0.511 | 0.43 | 0.317 | 1.15 | 0.992 | 0.908 | 0.743 | 1.07 | 0.552 | 0.745 | 0.111 | 0.548 | – | – | – |
| NCI-H1666 | 0.797 | 0.81 | 0.659 | 0.723 | 0.558 | 0.557 | 0.579 | 0.523 | 0.93 | 0.557 | 0.865 | 0.671 | 0.838 | 1.07 | 1.01 | 0.987 | 1.15 | 0.639 | 0.559 | 0.911 |
| NCI-H1975 | 0.364 | 0.443 | 0.456 | 0.388 | 0.417 | 0.431 | 0.407 | 0.399 | 0.933 | 0.951 | 1.03 | 0.88 | 0.931 | 0.238 | 0.281 | 0.262 | 0.114 | 0.349 | 0.442 | 0.26 |
| NCI-H460 | 0.461 | 0.468 | 0.432 | 0.43 | 0.463 | 0.509 | 0.473 | 0.188 | – | 0.806 | 0.664 | 0.527 | 0.72 | 0.0369 | 0.0487 | 0.0276 | 0.0281 | 0.457 | 0.519 | 0.0291 |
| NCI-H1355 | 0.357 | 0.347 | 0.403 | 0.311 | 0.459 | 0.52 | 0.482 | 0.426 | – | 0.746 | 0.832 | 0.76 | 0.849 | 0.834 | 0.776 | 0.7 | 0.522 | 0.326 | – | – |
| NCI-H1755 | 0.737 | 0.64 | 0.743 | 0.683 | 0.678 | 0.636 | 0.637 | 0.61 | 1 | 0.972 | 0.972 | 0.968 | 0.963 | 0.312 | 0.499 | 0.508 | 0.356 | 0.632 | 0.595 | 0.398 |
| NCI-H2405 | – | 0.791 | 0.752 | 0.66 | 0.431 | 0.39 | 0.416 | 0.365 | – | 0.938 | 1.01 | 0.923 | 0.885 | 0.689 | 0.77 | 0.679 | 0.583 | 0.516 | 0.327 | 0.59 |
| NCI-H2085 | 0.571 | 0.639 | 0.593 | 0.549 | 0.758 | 0.84 | 0.722 | 0.647 | 0.929 | 0.871 | 0.854 | 0.779 | 0.965 | 0.413 | 0.409 | 0.447 | 0.471 | 0.561 | 0.739 | 0.392 |
| LXF-289 | 0.413 | 0.391 | 0.386 | 0.329 | 0.554 | 0.517 | 0.512 | 0.508 | 0.93 | 0.955 | 0.954 | 0.922 | 0.925 | 0.732 | 0.709 | 0.714 | 0.632 | – | – | – |
